Test results taken from patent US10251869B2, “Compositions and methods of inhibiting metallo-β-lactamases” (priority 2014, dated 2019).
In brackets after ≈: the same amount, converted by molar mass. Read-outs that look alike come from different tables or passages of the source.

How the values were obtained:
[1] = test system: MBLs; test: Assays in solution after prolonged exposure to oxidative conditions; format: biochemical; conditions: data not shown
[2] = target: T1, VIM-24 (Escherichia coli, UniProt Q5U7L7, R205L); test: BTZ inhibition kinetics of nitrocefin hydrolysis by VIM-24; format: biochemical
T1 construct: which corresponds to cleavage after residues 20 (plus an additional Met residue on the N-terminus); made in house; host or cells: E. coli BL21(DE3) pLys, plasmid pET-24a(+)-blaVIM-24-S21
Excerpt: (§1) Analysis of BTZ inhibition kinetics. Models involving one, or two-step slow binding were considered to analyze BTZ inhibition of NFC hydrolysis by VIM-2 and VIM-24 (Scheme 1).
(§2) Here E represents the free enzyme, and I the free inhibitor, EI is the final enzyme-inhibitor complex for a single step slow binding mechanism, and E*I is the enzyme-inhibitor complex formed after conformational changes in a two-step slow binding mechanism. Therefore, the dissociation constant for the EI complex (Ki), also called the inhibitor constant, is defined as Ki=k−1/k1; the dissociation constant for the E*I complex (Ki′) is defined as Ki′=k−2/k2, and the overall dissociation constant for the two-step mechanism (Ki*) is defined as Ki*=Ki/(1+([…])).
(§3) The Ki for each inhibitor was determined by direct competition assays under steady-state conditions. The initial velocity was measured in the presence of a constant concentration of enzyme (3 nM for VIM-2 and 4 nM for VIM-24) with increasing concentrations of inhibitor (5-60 μM) against a fixed concentration (5 x KM) of the indicator substrate, NCF, as previously described (42-44). The reactions were started by addition of VIM-2 or VIM-24 to substrate or to mixtures of substrate and inhibitor. Data were linearized by plotting inverse initial steady-state velocities (1/v0) against inhibitor concentration (I). Ki (observed) was determined by dividing the value for the y intercept by the slope of the line. Ki determinations were corrected to account for the affinity of NCF for the β-lactamase according to equation 3.
(§4) Measurements of association rate constants for inhibitor binding were carried out at 25° C. in 10 mM HEPES at pH 7.5 supplemented with 200 mM NaCl, 50 μM […] and 50 μg/ml BSA, in the presence of several concentrations of each compound. Reactions were then initiated by the addition of β-lactamase (3 nM VIM-2 or 4 nM VIM-24) to a mixture of 50 μM NCF and each BTZ without pre-incubation. Inhibitor association rate constants were estimated from linear extrapolation of the observed rate constant for inhibition (kobs), which was obtained by fitting progress curves of NFC hydrolysis to Eq. 4:
(§5) As previously described, the linear dependence of kobs vs. [I] at limiting I concentration approximates second-order rate constant k2/Ki. The observed second-order rate constant also includes an adjustment for competition between inhibitor and substrate binding (Eq. 5).
(§6) Also, vs calculated from the progress curves of NCF hydrolysis for each concentration of inhibitor were used to determine Ki*, according to the relationship shown in equation 6 (5). The value reported is the mean of three velocities±SD.
(§7) To further test the time-dependent inhibition mechanism of inhibitor binding, assays using dilutions of pre-formed complexes were performed. For these experiments, 1 μM of enzyme was incubated with varying concentrations of the inhibitor which allowed for complete inactivation of the enzyme during the 5 min incubation at 25° C. The reactions were then diluted 2,000-fold in 10 mM HEPES at pH 7.5 supplemented with 200 mM NaCl, 50 μM […] and 50 μg/ml BSA, which contained 50 μM NCF. Reactivation of the enzyme based on NCF hydrolysis was monitored over time. Control reaction with the free enzyme was performed in the same fashion.

[3] = target: T2, VIM-2 (Pseudomonas aeruginosa, UniProt Q9K2N0); test: BTZ inhibition kinetics of nitrocefin hydrolysis by VIM-2; format: biochemical, P. aeruginosa
T2 construct: made in house; host or cells: E. coli BL21(DE3) pLys, plasmid pET-24a(+)-blaVIM-2-S21
Excerpt: as §1, §2, §3, §4, §5, §6, §7

[4] = test system: E. coli pBC SK(−); test: MIC by agar dilution, E. coli DH10B host with empty phagemid; format: cell-based; conditions: Escherichia coli
Procedure: (§8) E. coli DH10B (Invitrogen, Carlsbad, Calif.) was used as a host strain for pBCSK (−) blaVIM-2, and to obtain a mutant library at position 228 by site-saturation mutagenesis, using the QuickChange XL Site-directed Mutagenesis Kit (Stratagene). Briefly, primers that capture all 19 variants at MBL position 228 were designed and PCR mutagenic reactions were conducted using pBCSK (−) blaVIM-2 as a template, and transformed into E. coli DH10B. Single colonies were selected for plasmid purification, and successful mutagenesis was verified by complete DNA sequencing.
(§9) The effect of Zn^2+ availability was also tested by agar dilution using MH supplemented with 250 μM ZnSO4 or 5 μM EDTA. Reported values are the mode of at least 3 biological replicates.

[5] = test system: E. coli DH10B pBCSK(−) producing R228K variant; test: MIC by agar dilution, E. coli DH10B producing VIM-2 R228K; format: cell-based; conditions: Escherichia coli
Procedure: as §8, §9

[6] = test system: E. coli DH10B pBCSK(−) producing R228Q variant; test: MIC by agar dilution, E. coli DH10B producing VIM-2 R228Q; format: cell-based; conditions: Escherichia coli
Procedure: as §8, §9

[7] = test system: E. coli DH10B pBCSK(−) producing VIM-2 (228R); test: MIC by agar dilution, E. coli DH10B producing VIM-2; format: cell-based
Excerpt: A forward primer containing the SacI restriction site and a reverse primer with the BamHI restriction site were used to amplify blaVIM-2 including the pET24a(+) ribosomal binding site, using plasmid pET-24a(+)-blaVIM-2 as template. The product was then subcloned into phagemid pBCSK (−) (Agilent (Santa Clara, Calif.)) using the above restriction sites, and thus placing the blaVIM-2 open reading frame under control of the lac promoter, to yield phagemid pBCSK (−) blaVIM-2.
as §8, §9

[8] = test system: E. coli DH10B pBCSK(−) producing R228P variant; test: MIC by agar dilution, E. coli DH10B producing VIM-2 R228P; format: cell-based; conditions: Escherichia coli
Procedure: as §8, §9

[9] = target: T3, VIM-2 (Escherichia coli, UniProt Q5U7L7); test: Cefepime and ceftazidime hydrolysis in periplasm preparations, VIM-2; format: biochemical, P. aeruginosa; conditions: 800 μM cefepime or 400 μM ceftazidime, 25° C.
T3 construct: expressed in transfected cells; host or cells: E. coli DH10B carrying pBC SK(-) blaVIM-2; periplasmic extract by osmotic shock with chloroform
Procedure: (§10) Additionally, cefepime and ceftazidime hydrolysis were measured using periplasm preparations, as previously described. Briefly, periplasmic preparations of E. coli DH10B pBC SK (−) harboring blaVIM-2 or blaVIM-24 were obtained by osmotic shock with chloroform, and MBL production assessed by immunoblotting. Initial velocities of hydrolysis at high substrate concentrations (800 μM for cefepime and 400 μM for ceftazidime) were measured using equal amounts of both β-lactamases in 15 mM HEPES pH 7.5, 200 mM NaCl, supplemented with 50 μM ZnSO4, at 25° C.

[10] = target: T1, VIM-24; test: Cefepime and ceftazidime hydrolysis in periplasm preparations, VIM-24; format: biochemical; conditions: 800 μM cefepime or 400 μM ceftazidime, 25° C.
Procedure: as §10

[11] = test system: E. coli DH10B pBCSK(−) producing R228M variant; test: MIC by agar dilution, E. coli DH10B producing VIM-2 R228M; format: cell-based; conditions: Escherichia coli
Procedure: as §8, §9

[12] = test system: E. coli DH10B pBCSK(−) producing VIM-24 (R228L); test: MIC by agar dilution, E. coli DH10B producing VIM-24; format: cell-based; conditions: Escherichia coli
Procedure: as §8, §9

[13] = test system: E. coli DH10B pBCSK(−) producing R228Y variant; test: MIC by agar dilution, E. coli DH10B producing VIM-2 R228Y; format: cell-based; conditions: Escherichia coli
Procedure: as §8, §9

[14] = rate constant for breakdown of E*I
[15] = rate constant for formation of E*I
[16] = MHA supplemented with 5 μM EDTA
[17] = MHA supplemented with 250 μM Zn2+
[18] = Escherichia coli, MHA supplemented with 5 μM EDTA, read-out: MIC
[19] = Escherichia coli, MHA supplemented with 250 μM Zn2+, read-out: MIC
[20] = MHA supplemented with 5 μM EDTA, read-out: MIC
[21] = MHA supplemented with 250 μM Zn2+, read-out: MIC

Compound	MIC ([4]; MHA) [mg/L]	MIC [4, 16] [mg/L]	MIC [4, 17] [mg/L]	MIC ([5]; MHA) [mg/L]	MIC [5, 16] [mg/L]	MIC [5, 17] [mg/L]	MIC ([6]; MHA) [mg/L]	MIC [6, 16] [mg/L]	MIC [6, 17] [mg/L]	MIC ([7]; Escherichia coli, MHA) [mg/L]	MIC [7, 18] [mg/L]	MIC [7, 19] [mg/L]	MIC ([8]; MHA) [mg/L]	MIC [8, 16] [mg/L]	MIC [8, 17] [mg/L]	rate of hydrolysis (initial velocity) in periplasma [9]	rate of hydrolysis (initial velocity) in periplasma [10] [M/s]	MIC ([11]; MHA) [mg/L]	MIC [11, 16] [mg/L]	MIC [11, 17] [mg/L]	further results
O=C(O)[C@@H]1CS[C@H]2CS[C@H](CS)N21 [L-CS319]	–	–	–	–	–	–	–	–	–	–	–	–	–	–	–	–	–	–	–	–	inhibitory activity towards MBLs after prolonged exposure to oxidative conditions [1]: abolishes the inhibitory activity; k−2 [2, 14]: 0.001 ± 1 × 10^−3 s^−1; k2 [2, 15]: 0.06 ± 2 × 10^−3 s−1; Ki ([3]; initial complex EI, NCF as reporter substrate): 3.7 ± 0.3 µM; Ki ([3]; overall dissociation constant of two-step mechanism (E*I)): 0.04 ± 0.01 µM; k−2 [3, 14]: 0.0003 ± 1 × 10^−4 s^−1; k2 [3, 15]: 0.03 ± 1 × 10^−3 s^−1
CC(C)(O/N=C(\C(=O)N[C@@H]1C(=O)N2C(C(=O)[O-])=C(C[n+]3ccccc3)CS[C@H]12)c1csc(N)n1)C(=O)O [Ceftazidime]	0.06 (≈ 0.11 µM)	≤ 1	≤ 1	1 (≈ 1.83 µM)	≤ 1	≤ 1	128 (≈ 234 µM)	128 (≈ 234 µM)	512 (≈ 937 µM)	16 (≈ 29.3 µM)	16 (≈ 29.3 µM)	32 (≈ 58.5 µM)	1 (≈ 1.83 µM)	≤ 1	4 (≈ 7.32 µM)	measurable rates of hydrolysis were not obtained	4e-07	128 (≈ 234 µM)	64 (≈ 117 µM)	256 (≈ 468 µM)	MIC ([12]; MHA): 64 mg/L (≈ 117 µM); MIC [12, 20]: 32 mg/L (≈ 58.5 µM); MIC [12, 21]: 128 mg/L (≈ 234 µM); MIC ([13]; MHA): 64 mg/L (≈ 117 µM); MIC [13, 16]: 64 mg/L (≈ 117 µM); MIC [13, 17]: 128 mg/L (≈ 234 µM)
CO/N=C(\C(=O)N[C@@H]1C(=O)N2C(C(=O)[O-])=C(C[N+]3(C)CCCC3)CS[C@H]12)c1csc(N)n1 [Cefepime]	0.03 (≈ 0.0624 µM)	≤ 0.25	≤ 0.25	0.5 (≈ 1.04 µM)	≤ 0.25	≤ 0.25	16 (≈ 33.3 µM)	16 (≈ 33.3 µM)	32 (≈ 66.6 µM)	≤ 0.5	0.5 (≈ 1.04 µM)	0.5 (≈ 1.04 µM)	0.25 (≈ 0.52 µM)	≤ 0.25	0.5 (≈ 1.04 µM)	2.9×10^−7 M^s−1	5.3e-07	2 (≈ 4.16 µM)	4 (≈ 8.32 µM)	2 (≈ 4.16 µM)	MIC ([7]; MHA): 0.5 mg/L (≈ 1.04 µM); MIC ([12]; MHA): 4 mg/L (≈ 8.32 µM); MIC [12, 20]: 4 mg/L (≈ 8.32 µM); MIC [12, 21]: 4 mg/L (≈ 8.32 µM); MIC ([13]; MHA): 8 mg/L (≈ 16.6 µM); MIC [13, 16]: 8 mg/L (≈ 16.6 µM); MIC [13, 17]: 8 mg/L (≈ 16.6 µM)
